Measured values: patent EP2073012A1, “Method for the isolation and identification of ADP-ribosylated molecules” (Fondazione Telethon, priority 2007, dated 2009)

Assays:
BAL9 = conditions: cited from earlier work
Af1521 = molecular target: T1, Af1521 (Archaeoglobus fulgidus, UniProt O28751); conditions: cited from earlier work
T1 sequence (O28751 1-192): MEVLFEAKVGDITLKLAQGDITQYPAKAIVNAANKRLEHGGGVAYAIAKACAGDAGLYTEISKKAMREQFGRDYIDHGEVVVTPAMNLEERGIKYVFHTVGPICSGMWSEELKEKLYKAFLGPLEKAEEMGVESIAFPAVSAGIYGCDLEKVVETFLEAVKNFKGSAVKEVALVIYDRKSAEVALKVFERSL

His6-mAf1521 = molecular target: T2, His6-mAf1521 (Archaeoglobus fulgidus, UniProt O28751); assay: Pull-down displacement assay: free ADP-ribose added after pull-down of [32P]-ADP-ribosylated β subunit by resin-bound His6-mAf1521; format: binding
T2 construct: made in house
T2 sequence (O28751 1-192): T1 sequence (O28751 1-192)
Description: Samples (10 µg plasma membranes) were incubated with 50 µl ADP-ribosylation buffer (50 mM potassium phosphate buffer (PFB), pH 7.4, 5 mM MgCl2, 4 mM dithiothreitol (DTT), 10 µM GTPγS, 700 µM β-NAD^+ and 4.5 µCi [^32P]-NAD (specific activity: 1,000 Ci/mmol)) at 37 °C for 60 min, unless otherwise specified. Under these conditions, 10% of the total β was mono-ADP-ribosylated; to obtain maximal modification (80%-100% of total β mono-ADP-ribosylated), the incubation was prolonged to 12 h at 30 °C. The in-vitro PT-catalyzed ADP-ribosylation was performed as previously described^34, using either total membranes or purified proteins (β-action or SLC25A5; Sigma and Abnova Corporation, respectively). […]
Plasma membranes (10 µg for each sample) were ADP-ribosylated as described above, washed with 50 mM PFB, pH 7.4, to remove unbound NAD, and then centrifuged at 16.000x g for 15 min at 4 °C. […] Then the resin was washed three times with RIPA buffer plus 10 mM imidazole, and finally both the washed resin and the unbound fraction (one-eight of the total volume) were diluted in 50 µl Laemmli buffer, boiled and analysed by 10% SDS-PAGE. […] The gels underwent colloidal Coomassie blue (blue code, Pierce) or silver staining, and the bands of interest were analysed by MALDI-TOF-MS. […]

Compound | fold lower affinity than free ADP-ribose (BAL9) [fold] | fold lower affinity than free ADP-ribose (Af1521) [fold] | excess of ADP-ribose able to displace the immobilized ADP-ribosylated β subunit from the His6-mAf1521-resin complex (His6-mAf1521; molar excess over bound β subunit) [fold] | ADP-ribose concentration to displace all of the His6-mAf1521-bound [32P]-ADP-ribosylated β subunit (His6-mAf1521; ∼400 pmol ADP-ribose against ∼4 pmol bound β subunit) [µM]
NC(=O)c1ccc[n+]([C@@H]2O[C@H](COP(=O)([O-])OP(=O)(O)OC[C@H]3O[C@@H](n4cnc5c(N)ncnc54)[C@H](O)[C@@H]3O)[C@@H](O)[C@H]2O)c1 [NAD] | > 1000 | > 1000 |  | 
Nc1ncnc2c1ncn2[C@@H]1O[C@H](CO)[C@@H](O)[C@H]1O [adenosine] | > 1000 | > 1000 |  | 
ADP-ribose |  |  | ~100 | 100
